Data set [1] has as its system Hs578T. The data set can be described thus: Matrigel outgrowth assay/branching assay. To be noted: Homo sapiens, Hs-578T; HS578T cell line; Table Ib; read-out: Total branching inhibition in Matrigel HS578T. Type of data set: cell-based. As for the experimental part: The Matrigel outgrowth assay is based on the ability of tumor cell to penetrate a solid gel of extracellular matrix proteins mimicking the metastasis formation in vivo. While cells with low invasive potential appear as roundish cell or cell cluster, cells with high invasive potential penetrate the Matrigel and form polymorphic structures. In detail 65 μl of Matrigel matrix (Matrigel™ Matrix, BD Biosciences, Bedford, Mass., USA) with a concentration of 3 mg/ml have been polymerized in 96 well plates for 1 h at 37° C. Subsequently 5000 cell/well were seeded into each well containing cell culture medium and indicated compound with concentrations of 3.125 μM, 1.56 μM and 0.78 μM as well as DMSO control. After 48 h, 72 h and 96 h images of cell were taken on an inverted microscope using a 5× objective (Zeiss Axiovert S100 microscope Carl Zeiss UK, Welwyn Garden City, UK). Only compound concentrations were total branching inhibition was evident were accounted as positive. Method was used as previously described, with some modifications (Thompson E W, et al. Association of increased basement membrane invasiveness with absence of estrogen receptor and expression of vimentin in human breast cancer cell lines. J Cell Physiol 1992; 150:534-44).

Data set [2] relates to Hs578T. Nature of the data set: Cell vitality assay (ATP assay, CellTiter-Glo). The data set is classed as cell-based. To be noted: Homo sapiens, Hs-578T; HS578T cell line, 72 h; Table Ib; read-out: IC50 ATP-Assay HS578T after 72 h. As for the experimental part:
The CellTiter-Glo® Luminescent Cell Viability Assay (Promega Corporation. Madison, Wis., USA) is method a determining the number of viable cells in culture based on quantification of the ATP being present which is an indicator of metabolically active cells was used according to manufacturers protocol, In detail the assay was performed in a 96 well format were 1000 cells/well were incubated with indicated compound at concentration of 12.5 μM, 6.25 μM, 3.125 μM, 1.56 μM, 0.78 μM, 0.39 μM, 0.195 μM as well as DMSO control for 72 h in 100 μl cell culture medium. IC50 values were calculated as 50% of ATP amount compared to DMSO control.
Protocol for the CellTiter-Glo® Luminescent Cell Viability Assay • 1. Prepare opaque-walled multiwell plates with mammalian cells in culture medium, 100 μl per well for 96-well plates • 2. Prepare control wells containing medium without cells to obtain a value for background luminescence. • 3. Add the compound to be tested to experimental wells, and incubate according to culture protocol. • 4. Equilibrate the plate and its contents at room temperature for approximately 30 minutes. • 5. Add a volume of CellTiter-Glo® Reagent (Promega Corporation. Madison, Wis.) equal to the volume of cell culture medium present in each well. • 6. Mix contents for 2 minutes on an orbital shaker to induce cell lysis. • 7. Allow the plate to incubate at room temperature for 10 minutes to stabilize luminescent signal. • 8. Record luminescence on Microplate Luminometer LB96V (Berthold Tchnologies, Bad Wildbad, Germany). An integration time of 0.1 and 1 second per well

Data set [3] deals with Hs578T. The data set can be described thus: Wound healing migration assay. Type of data set: cell-based. To be noted: Homo sapiens, Hs-578T; HS578T cell line; Table Ib. As to the method:
This method mimics cell migration during wound healing in vivo. The basic steps involve creating a “wound” in a cell monolayer, capturing the images at the beginning and at regular intervals during cell migration to close the wound, and comparing the images to quantify the migration rate of the cells. In detail, 150000 cell/24 well have been seeded and allowed to form a monolayer overnight. Subsequently a “wound” or “scratch” has been performed with a 1000 μl pipette tip. The STDV of wound size is normally below 10% at time point t0. The assay was stopped by fixation with 0.05% Crystal violet/20% methanol when control scratches were closed. The assay was terminated between 48 h and 72 h depending on the migration potential of the indicated cell line. The “wounds” were visualized with a Zeiss Axiovert S100 microscope (Carl Zeiss UK, Welwyn Garden City, UK). The tested compounds were used at 12.5 μM, 6.25, 3.125 μM and DMSO control. IC50 values have been calculated as 50% wound size in between t0 and t48 or t72.

Experimental findings from patent publication US9169241B2, “Quinolinyloxyphenylsulfonamides” (Max-Planck-Gesellschaft Zur Forderung der Wissenschaften …, priority 2009, dated 2015) are described below.

As to `COc1cc2c(Oc3ccc(NS(=O)(=O)c4cnc(C)[nH]4)cc3F)ccnc2cc1OCCCN1CCC(C)CC1` [Example 168, 2-Methyl-3H-imidazole-4-sulfonic acid (3-fluoro-4-{6-methoxy-7-[3-(4-methyl-piperidin-1-yl)-propoxy]-quinolin-4-yloxy}-phenyl)-amide], the melting point was in the range of 225 to 226 °C. In data set [1], the IC50 was 10 to 25 µM. In addition, in data set [2], the IC50 was in the range of 12.5 to 50 µM. The IC50 in data set [3] was in the range of 12.5 to 50 µM.
Turning to `COc1cc2c(Oc3ccc(NS(=O)(=O)c4cnc(C)[nH]4)cc3F)ccnc2cc1OCCCN1CCN(C)CC1` [Example 170, 2-Methyl-3H-imidazole-4-sulfonic acid (3-fluoro-4-{6-methoxy-7-[3-(4-methyl-piperazin-1-yl)-propoxy]-quinolin-4-yloxy}-phenyl)-amide], the melting point lay within 215 to 217 °C. In addition, in data set [1], the IC50 lay in the range of 10 to 25 µM. Besides, the IC50 in data set [2] was 12.5 to 50 µM. Besides, the IC50 in data set [3] fell in the range of 12.5 to 50 µM.
`COc1cc2c(Oc3ccc(NS(=O)(=O)c4sc(NC(C)=O)nc4C)cc3F)ccnc2cc1OCCCN(C)C` [Example 183, N-(5-{4-[7-(3-Dimethylamino-propoxy)-6-methoxy-quinolin-4-yloxy]-3-fluoro-phenylsulfamoyl}-4-methyl-thiazol-2-yl)-acetamide] yielded a melting point of 164 to 166 °C. In addition, the IC50 in data set [1] fell in the range of 10 to 25 µM. Also, the IC50 in data set [2] lay within 12.5 to 50 µM. Further, the IC50 in data set [3] fell in the range of 12.5 to 50 µM.
Molecule `COc1cc2c(Oc3cc(NS(=O)(=O)c4c(F)cccc4F)ccc3F)ccnc2cc1OCCCN1CCC(C)CC1` [Example 188, 2,6-Difluoro-N-(4-fluoro-3-{6-methoxy-7-[3-(4-methyl-piperidin-1-yl)-propoxy]-quinolin-4-yloxy}-phenyl)-benzenesulfonamide] registered a melting point of 185 to 186 °C. For the same molecule, the IC50 in data set [1] is not above 10 µM. In data set [2], the IC50 was not above 12.5 µM. In data set [3], this molecule showed an IC50 not above 12.5 µM.
On to `COc1cc2c(Oc3cc(NS(=O)(=O)c4ccccc4C(F)(F)F)ccc3F)ccnc2cc1OCCCN1CCC(C)CC1` [Example 189, N-(4-Fluoro-3-{6-methoxy-7-[3-(4-methyl-piperidin-1-yl)-propoxy]-quinolin-4-yloxy}-phenyl)-2-trifluoromethyl-benzenesulfonamide], for which the melting point was 175 to 177 °C. Further, the IC50 in data set [1] is 10 to 25 µM. Moreover, the IC50 in data set [2] fell in the range of 12.5 to 50 µM. Besides, the IC50 in data set [3] was 12.5 to 50 µM.
Take `COc1cc2c(Oc3cc(NS(=O)(=O)c4ccccc4OC(F)(F)F)ccc3F)ccnc2cc1OCCCN1CCC(C)CC1` [Example 190, N-(4-Fluoro-3-{6-methoxy-7-[3-(4-methyl-piperidin-1-yl)-propoxy]-quinolin-4-yloxy}-phenyl)-2-trifluoromethoxy-benzenesulfonamide]: the melting point fell in the range of 80 to 82 °C. Also, the IC50 in data set [1] is 10 to 25 µM. For the same molecule, the IC50 in data set [2] lay in the range of 12.5 to 50 µM. The molecule further gave an IC50 in data set [3] of 12.5 to 50 µM.
As for `COc1cc2c(Oc3cc(NS(=O)(=O)c4c(Cl)cccc4Cl)ccc3F)ccnc2cc1OCCCN1CCC(C)CC1` [Example 192, 2,6-Dichloro-N-(4-fluoro-3-{6-methoxy-7-[3-(4-methyl-piperidin-1-yl)-propoxy]-quinolin-4-yloxy}-phenyl)-benzenesulfonamide], the melting point is 116 to 118 °C. The IC50 in data set [1] lay within 10 to 25 µM. Moreover, in data set [2], the IC50 is not above 12.5 µM. The IC50 in data set [3] lay within 12.5 to 50 µM.
As to `COc1cc2c(Oc3ccc(Cl)c(NS(=O)(=O)c4ccccc4C(F)(F)F)c3)ccnc2cc1OCCCN1CCC(C)CC1` [Example 195, N-(2-Chloro-5-{6-methoxy-7-[3-(4-methyl-piperidin-1-yl)-propoxy]-quinolin-4-yloxy}-phenyl)-2-trifluoromethyl-benzenesulfonamide], the melting point fell in the range of 179 to 181 °C. Also, in data set [1], the IC50 is 10 to 25 µM. Also, the IC50 in data set [2] fell in the range of 12.5 to 50 µM. In addition, the IC50 in data set [3] fell in the range of 12.5 to 50 µM.
In the case of `COc1cc2c(Oc3ccc(Cl)c(NS(=O)(=O)c4ccccc4OC(F)(F)F)c3)ccnc2cc1OCCCN1CCC(C)CC1` [Example 196, N-(2-Chloro-5-{6-methoxy-7-[3-(4-methyl-piperidin-1-yl)-propoxy]-quinolin-4-yloxy}-phenyl)-2-trifluoromethoxy-benzenesulfonamide], the melting point lay in the range of 123 to 126 °C. Besides, the IC50 in data set [1] fell in the range of 10 to 25 µM. Also, the IC50 in data set [2] lay in the range of 12.5 to 50 µM. In data set [3], this molecule came in with an IC50 of 12.5 to 50 µM.
Consider `COc1ccc2nccc(Oc3ccc(NS(=O)(=O)c4c(F)cccc4F)cc3F)c2c1` [Example 200, 2,6-Difluoro-N-[3-fluoro-4-(6-methoxy-quinolin-4-yloxy)-phenyl]-benzenesulfonamide], for which the melting point was in the range of 227 to 228 °C. For the same molecule, the IC50 in data set [1] is 10 to 25 µM. Further, in data set [2], the IC50 fell in the range of 12.5 to 50 µM. Besides, in data set [3], the IC50 lay in the range of 12.5 to 50 µM.
As to `COc1ccc2nccc(Oc3ccc(NS(=O)(=O)c4cc(Cl)ccc4Cl)cc3F)c2c1` [Example 203, 2,5-Dichloro-N-[3-fluoro-4-(6-methoxy-quinolin-4-yloxy)-phenyl]-benzenesulfonamide], the melting point lay within 253 to 255 °C. Further, in data set [1], the IC50 lay within 10 to 25 µM. For the same molecule, the IC50 in data set [2] is not above 12.5 µM. In addition, in data set [3], the IC50 was not above 12.5 µM.
As for `COc1ccc2nccc(Oc3ccc(NS(=O)(=O)c4c(Cl)cccc4Cl)cc3F)c2c1` [Example 204, 2,6-Dichloro-N-[3-fluoro-4-(6-methoxy-quinolin-4-yloxy)-phenyl]-benzenesulfonamide], the melting point lay within 219 to 221 °C. Also, the IC50 in data set [1] fell in the range of 10 to 25 µM. Moreover, the IC50 in data set [2] fell in the range of 12.5 to 50 µM. In data set [3], the IC50 fell in the range of 12.5 to 50 µM.
`COc1ccc2nccc(Oc3ccc(NS(=O)(=O)c4ccc5ccccc5c4)cc3F)c2c1` [Example 205, Naphthalene-2-sulfonic acid [3-fluoro-4-(6-methoxy-quinolin-4-yloxy)-phenyl]-amide] yielded a melting point of 220 to 222 °C. Moreover, the IC50 in data set [1] lay in the range of 10 to 25 µM. In data set [2], the IC50 was 12.5 to 50 µM. The molecule also showed an IC50 in data set [3] of 12.5 to 50 µM.
Consider `COc1ccc2nccc(Oc3ccc(NS(=O)(=O)C4CC4)cc3F)c2c1` [Example 206, Cyclopropanesulfonic acid [3-fluoro-4-(6-methoxy-quinolin-4-yloxy)-phenyl]-amide], for which the melting point fell in the range of 194 to 196 °C. The IC50 in data set [1] is 10 to 25 µM. Also, the IC50 in data set [2] was 12.5 to 50 µM. This molecule had an IC50 in data set [3] of 12.5 to 50 µM.
For `COc1cc2c(Oc3ccc(NS(=O)(=O)c4cc(F)ccc4F)cc3F)ccnc2cc1OCCCCOC(C)=O` [Example 211, Acetic acid 4-{4-[4-(2,5-difluoro-benzenesulfonylamino)-2-fluoro-phenoxy]-6-methoxy-quinolin-7-yloxy}-butyl ester], the melting point fell in the range of 165 to 167 °C. Besides, the IC50 in data set [1] lay within 10 to 25 µM. For the same molecule, the IC50 in data set [2] was not above 12.5 µM. For the same molecule, the IC50 in data set [3] was not above 12.5 µM.
In turn, `COc1cc2c(Oc3ccc(NS(=O)(=O)c4ccccc4C(F)(F)F)cc3F)ccnc2cc1OCCCCOC(C)=O` [Example 212, Acetic acid 4-{4-[2-fluoro-4-(2-trifluoromethyl-benzenesulfonylamino)-phenoxy]-6-methoxy-quinolin-7-yloxy}-butyl ester] had a melting point of 143 to 145 °C. Moreover, the IC50 in data set [1] lay within 10 to 25 µM. Further, the IC50 in data set [2] fell in the range of 12.5 to 50 µM. In data set [3], this molecule registered an IC50 of 12.5 to 50 µM.

The term melting point denotes the temperature, or range, at which the solid turns liquid.
